This experiment concerns the target Human immunodeficiency virus type 1 integrase (Human immunodeficiency virus 1, UniProt Q7ZJM1). Nature of the experiment: Inhibition of Human immunodeficiency virus 1 integrase strand transfer activity.

Sequence of Human immunodeficiency virus type 1 integrase (Q7ZJM1 whole entry): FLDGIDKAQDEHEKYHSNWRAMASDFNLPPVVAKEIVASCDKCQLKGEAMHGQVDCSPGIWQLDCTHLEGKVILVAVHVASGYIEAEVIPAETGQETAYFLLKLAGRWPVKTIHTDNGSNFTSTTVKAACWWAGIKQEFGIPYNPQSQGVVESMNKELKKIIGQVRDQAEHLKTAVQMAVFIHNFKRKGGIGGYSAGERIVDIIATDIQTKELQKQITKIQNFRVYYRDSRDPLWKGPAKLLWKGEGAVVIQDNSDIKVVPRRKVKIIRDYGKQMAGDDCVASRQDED

Turning to `CC[C@@H](CO)n1cc(CO)c(=O)c2cc(Cc3ccccc3F)c(OC)cc21`, inhibition was half-maximal at 7.2 nM (IC50).

`Cc1cccc(/C=C/c2ccc3ccc(C(=O)O)c(O)c3n2)c1C` had an IC50 of 60.6 nM.

The compound `O=C(O)/C(O)=C/C(=O)c1ccc2[nH]cc(C(=O)/C=C(\O)C(=O)O)c(=O)c2c1` showed an IC50 of 430 nM.

The compound `O=C(O)/C(O)=C/C(=O)c1ccc2c(c1)c(=O)c(C(=O)/C=C(\O)C(=O)O)cn2-c1ccccc1` gave an IC50 of 12 nM.

`O=C(O)/C(O)=C/C(=O)c1cn(Cc2cccc(F)c2)c2ccccc2c1=O` had an IC50 of 31.3 nM.

Take `O=C(O)/C(O)=C/C(=O)c1ccc2c(c1)c(=O)c(C(=O)O)cn2Cc1ccc(F)cc1` [13, RDS-1607]: the half-maximal inhibitory concentration (IC50) is 1090 nM.

`CCOC(=O)/C(O)=C/C(=O)c1cn(Cc2cccc(F)c2)c2ccccc2c1=O` [RDS-1624] showed an IC50 of 326 nM.

Source of the values: ChEMBL document CHEMBL3044682, “QSAR modeling of bifunctional quinolonyl diketo acid derivatives as integrase inhibitors” (Med Chem Res, 2012).
